Assay results: article PMC10380619, “Inhibitor Trapping in N-Myristoyltransferases as a Mechanism for Drug Potency” (International Journal of Molecular Sciences, 2023)

Tests used:
NMT = settings: cited from earlier work; for IC50: fragments as single agents
[1] = target: T1, full-length recombinant HsNMT1 enzyme (Homo sapiens, UniProt P30419); assay: fluorogenic NMT inhibition assay; type: biochemical
T1 construct: 18.9 nM full-length recombinant HsNMT1 enzyme was incubated; purchased Fitzgerald Industries International 80R-4067
T1 sequence (P30419 1-496): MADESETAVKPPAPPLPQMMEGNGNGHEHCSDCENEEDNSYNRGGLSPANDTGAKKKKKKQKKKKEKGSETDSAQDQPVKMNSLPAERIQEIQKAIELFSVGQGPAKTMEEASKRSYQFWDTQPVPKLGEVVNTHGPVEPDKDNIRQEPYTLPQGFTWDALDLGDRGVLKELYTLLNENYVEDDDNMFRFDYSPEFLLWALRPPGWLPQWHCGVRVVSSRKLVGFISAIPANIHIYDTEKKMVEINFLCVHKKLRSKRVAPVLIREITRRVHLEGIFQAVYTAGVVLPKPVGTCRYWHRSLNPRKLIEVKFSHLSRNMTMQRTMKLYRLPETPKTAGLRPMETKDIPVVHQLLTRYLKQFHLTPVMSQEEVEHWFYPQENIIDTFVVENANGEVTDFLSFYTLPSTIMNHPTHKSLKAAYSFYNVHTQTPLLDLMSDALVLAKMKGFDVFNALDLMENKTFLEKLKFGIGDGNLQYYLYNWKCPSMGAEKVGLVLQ
Protocol: Materials and reagents. […] The ZINC IDs and the structures of the compounds are included in Table S1. […] CPM (7-Diethylamino-3- (4-maleimidophenyl)-4-methylcoumarin) and Myristoyl-CoA were purchased from Cayman Chemicals, and the buffer components from Merck (Kenilworth, NJ, USA).
NMT inhibition assay. IC50 values were determined using a fluorogenic NMT assay, as previously described. The assay detects Coenzyme A (CoA), which is released as a byproduct of the enzymatic reaction. […] The reactions were performed in reaction buffer (20 mM potassium phosphate, pH 8.0, 0.5 mM EDTA, 0.1% (v/v) Triton® X-100) in 44 µL volume in a 96-well black plate. To eliminate the background fluorescence, reactions were also performed in the absence of the NMT1 enzyme for each concentration of the ligands. […] Fluorescence was measured at an excitation wavelength of 380 nm and an emission wavelength of 470 nm with a CLARIOstar fluorescent reader (BMG LABTECH GmbH, Ortenberg, Germany). The fluorescent values of samples obtained in the absence of NMT1 were subtracted from the fluorescent signal of samples performed in the presence of NMT1 to eliminate the background signal. The subtracted values were plotted in GraphPad Prism using a log (inhibitor concentration) vs. normalized response nonlinear fit to generate inhibitory curves and determine IC50 values.

In the case of `Cc1cc(F)ccc1-c1ccc2[nH]nc(CN(C)C)c2c1` [IMP-72], the IC50 (NMT) is listed as 20 µM and the “fold reduction of IC50 of IMP-72 by IMP-358” value (NMT; in the presence of 100 µM IMP-358) is listed as 308 fold.
In the case of `CCOC(=O)c1c(C)nc2ccccc2c1C` [IMP-358], the IC50 (NMT) is given as greater than 100 µM.
For `Cc1nc(Nc2cnn(C3CCNCC3)c2)nc2c1N(C)C(=O)c1cc3ccccc3cc1N2C` [compound 11], the IC50 ([1]; 18.9 nM HsNMT1, 4 µM Myristoyl-CoA, 4 µM substrate peptide, highest concentration 100 µM) was greater than 100 µM, the “% Inhibition” value ([1]; at concentration of the compounds 100 µM) was 0% and the “Fold Potency” value ([1]; ratio of IC50 of each compound to IC50 of IMP-1088) was >13,158.
